# In patent publication EP2880993A1, “Method of achieving memory and learning improvement by the administration of sialic acid” (ABBOTT LABORATORIES, priority 2013, dated 2015):
# “Also recorded” adds a separate entry of the source.
# How the values were obtained:
# rats [1] = experiment: Novel Object Recognition testing, Example 2; format: in vivo, Sprague-Dawley rat; conditions: 13 months old; retention test one day after acquisition phase; FIG. 5; listed as NeuAc
# Protocol: Perirhinal cortex and hippocampus are involved in the novel object recognition task. Novel Object Recognition Testing was performed when the rats were 13 months old, which corresponds to 45-50 years old for humans. Eight animals were tested.
# During a habituation phase of the test, the rats were allowed to explore an "arena" for 20 minutes per day for 3 consecutive days. The arena was a black, open plastic chamber. Next, an acquisition phase took place wherein the animals interfaced with two different objects. These object are defined as "familiar." The rats were allowed to the arena while the familiar objects were present for 10 minutes. One day after the acquisition phase, a retention test was performed on the rats, wherein one of the familiar objects was replaced by a new object. The new object is defined as "novel." The rats were allowed to explore the arena for 5 minutes during the retention test. In theory, animals that remember familiar objects will spend more time exploring the novel object than the familiar one.
# [2] = system: hippocampal CA3-CAl areas; experiment: Long-term potentiation (LTP) testing in vivo, Example 2; parameters: species or system Sprague-Dawley rat; conditions: 11 months old; after the second day, followed for up to 4 days; FIG. 4
# Protocol: In order to establish the role of sialylated oligosaccharides in cognition, rat pups were supplemented with 6'-sialyllactose (6'-SL) from postnatal day 3 (PND3) and their learning and memory abilities were analyzed later in life. Rat performance in a classical spatial cognitive task (Y-maze), Novel object Recognition, protocol of spatial learning in the novel Intellicage® system, and Morris water maze were carried out once the animals reached 12 and 14 months of age. LTP response in hippocampus was also evaluated in vivo once the animals reached 11 months of age. The Y-maze, Object Recognition and the IntelliCage® allow the determination of spatial orientation and memory capabilities of experimental animals. The same female rats performed all the tests.
# The pups from the second cohort were divided into three groups and given the following designations: the 6'-SL supplemented group, the NeuAc supplemented group and the control group. Initially, each group comprised 20 male pups. Due to premature deaths there were a total of 14 pups in the 6'-SL supplemented group at the end of the lactation. The 6'-SL supplemented group received 6'-SL supplementation (8 doses/day) in order to reach the same sialic acid levels as normally reared pups. The amount of 6'-SL given to the 6'-SL supplemented group was selected to follow the change in concentration of sialic acid in rat milk, ranging from 1.5 g/Kg body weight on day 3 to 0.5 g/Kg body weight at weaning. The maximum amount of sialic acid given to a pup was a maximum of 2 mg/Kg on day 8.
# There were a total of 16 male pups in the NeuAc supplemented group at the end of lactation. The NeuAc supplemented group received NeuAc supplementation in order to reach the same sialic acid levels as normally reared pups. The amount of NeuAc given to the NeuAc supplemented group was selected to follow the change in concentration of sialic acid in rat milk, ranging from 1.5 g/Kg body weight on day 3 to 0.5 g/Kg body weight at weaning. The maximum amount of sialic acid given to any pup was 2 mg/Kg on day 8,
# Long-term potentiation (LTP) measurements were performed in each of the three groups, i.e., the 6'-SL Supplemented Group, the NeuAc -Supplemented Group and the Control Group. The testing was done while the animals were alive and 11 months old, which is about age 40 in human years. Experiments were done in order to determine the functionality of hippocampus in vivo. […]
# To evoke LTP, the following high frequency stimulation (HFS) protocol was used: each animal was subjected to five 200 Hz, 100 ms trains of pulses at a rate of l/s. […] After the HFS protocol, fEPSPs were recorded again for 30 minutes. […]
# The HFS train is indicated by the downward arrow. […] The baseline was recorded at 15, 10, and 5 minutes before HFS.
# rats [3] = experiment: Intellicage testing, Example 2; format: in vivo, Sprague-Dawley rat; conditions: 14-15 months old, compared with Control group
# Protocol: IntelliCage® (NewBehavior AG) is a computer-based, fully automated testing apparatus used to analyze spontaneous and learned behavior. Eight rats in each group were tested. The rats were 14-15 months old, which corresponds to 55-60 years old for humans, when these tests were performed. Animals remain in the cage during several days and behavior is recorded during the entire testing period. Different paradigms can be tested by restricting water access to specific places and time periods. Each animal is assigned a corner where it can access water. Access to the water is only allowed during discrete time periods. Thus, each animal must learn when access to water bottles is allowed and which corner, out of four, has been assigned to it. Access to the corner is controlled by a door that opens only when the assigned rat enters its nose in a hole. […] Access to non-assigned corners remain blocked except during two 90 min periods during the night.
# rats [4] = experiment: Y-maze testing, Example 2 (Acquisition Trial and Retention Trial); format: in vivo, Sprague-Dawley rat; conditions: 14 months old
# Protocol: A Y-maze test was performed when the rats were 14 months old, which corresponds to 50-55 years old in humans. Eight rats in each group were tested. The Y-maze testing was performed in two phases: an Acquisition Trial and a Retention Trial. Rats in each group were evaluated in the Y-maze.
# During the Acquisition Trial, one of the three arms of the Y-maze was blocked, and animals were allowed to explore the other two arms for 15 minutes. The Retention Trial took place 4 hours after the Acquisition Trial. During the Retention Trial, all three arms were open and animals were allowed to explore for 5 minutes. The amount of time each animal spent at the start of the Y-maze and each arm was evaluated.
smiles,measurement,setting,value
"CC(=O)N[C@H]1[C@H]([C@H](O)[C@H](O)CO)OC(O)(C(=O)O)C[C@@H]1O (stereo partly drawn) [SIA, N-Acetylneuraminic acid]",time spent exploring the novel object versus the familiar object,rats [1],significantly more time visiting the novel object than the familiar one; also recorded: distinguish better between the familiar and novel object
same,persistence of LTP induction,[2],remaining
same,speed of learning,rats [3],seemed to learn faster than the Control group
same,visits to the correct corner versus the incorrect corner (performance),rats [3]; FIG. 8,performed better compared to the Control group
same,latency to blocked arm,"rats [4]; Retention Trial 4 hours after Acquisition Trial, compared with Control group, FIG. 6",lower values of latency to the blocked arm in comparison with Control group
same,percentage of animals visiting the previously blocked arm first,"rats [4]; Retention Trial, compared with control animals, FIG. 7",significantly higher than that of the control animals
